Test results published in ChEMBL document CHEMBL4392848, “Proline-based hydroxamates targeting the zinc-dependent deacetylase LpxC: Synthesis, antibacterial properties, and docking studies” (Bioorg Med Chem, 2019).
≈ marks a conversion by molar mass, not a printed value.

Tests used:
Klebsiella aerogenes = test: Antibacterial activity against Enterobacter aerogenes assessed as diameter of inhibition zone measured after 24 hrs by agar disc diffusion method; assay type: functional
Pseudomonas aeruginosa = test: Antibacterial activity against Pseudomonas aeruginosa assessed as diameter of inhibition zone measured after 24 hrs by agar disc diffusion method; assay type: functional
Klebsiella oxytoca = test: Antibacterial activity against Klebsiella oxytoca assessed as diameter of inhibition zone measured after 24 hrs by agar disc diffusion method; assay type: functional
Neutrophil collagenase = Neutrophil collagenase (Homo sapiens, UniProt P22894); test: Inhibition of human MMP8 using (7-methoxycoumarin-4-yl)acetyl-Pro-Leu-Gly-Leu-(3-(2,4-dinitrophenyl)-L-2,3-diamino-propionyl)Ala-Arg-NH2 as substrate preincubated for 30 mins followed by substrate addition and measured by fluorescence assay
Sequence of Neutrophil collagenase (P22894 whole entry, the tested form may be a part): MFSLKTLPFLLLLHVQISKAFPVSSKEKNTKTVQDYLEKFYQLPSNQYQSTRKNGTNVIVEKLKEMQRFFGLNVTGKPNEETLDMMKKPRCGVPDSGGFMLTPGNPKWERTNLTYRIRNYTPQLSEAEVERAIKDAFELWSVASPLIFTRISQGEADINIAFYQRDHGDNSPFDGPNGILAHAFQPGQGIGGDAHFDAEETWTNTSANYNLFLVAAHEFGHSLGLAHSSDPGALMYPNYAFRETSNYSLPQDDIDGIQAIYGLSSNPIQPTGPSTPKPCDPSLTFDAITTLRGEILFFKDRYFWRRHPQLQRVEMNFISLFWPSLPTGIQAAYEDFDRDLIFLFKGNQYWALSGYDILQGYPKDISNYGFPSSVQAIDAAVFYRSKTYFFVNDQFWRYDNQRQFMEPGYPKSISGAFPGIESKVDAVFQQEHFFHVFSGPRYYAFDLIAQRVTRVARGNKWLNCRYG

Escherichia coli [1] = test: Antibacterial activity against Escherichia coli D22 assessed as diameter of inhibition zone measured after overnight incubation by agar disc diffusion method; assay type: functional
Citrobacter freundii = test: Antibacterial activity against Citrobacter freundii assessed as diameter of inhibition zone measured after 24 hrs by agar disc diffusion method; assay type: functional
Proteus vulgaris = test: Antibacterial activity against Proteus vulgaris assessed as diameter of inhibition zone measured after 24 hrs by agar disc diffusion method; assay type: functional
[2] = Inhibition of Escherichia coli LpxC C63A mutant using UDP-3-O-[(R)-3-hydroxymyristoyl]-N-acetylglucosamine as substrate measured after 30 mins by fluorescence based microplate assay
[3] = target: 72 kDa type IV collagenase (Homo sapiens, UniProt P08253); test: Inhibition of human MMP2 using (7-methoxycoumarin-4-yl)acetyl-Pro-Leu-Gly-Leu-(3-(2,4-dinitrophenyl)-L-2,3-diamino-propionyl)Ala-Arg-NH2 as substrate preincubated for 30 mins followed by substrate addition and measured by fluorescence assay
Sequence of 72 kDa type IV collagenase (P08253 whole entry): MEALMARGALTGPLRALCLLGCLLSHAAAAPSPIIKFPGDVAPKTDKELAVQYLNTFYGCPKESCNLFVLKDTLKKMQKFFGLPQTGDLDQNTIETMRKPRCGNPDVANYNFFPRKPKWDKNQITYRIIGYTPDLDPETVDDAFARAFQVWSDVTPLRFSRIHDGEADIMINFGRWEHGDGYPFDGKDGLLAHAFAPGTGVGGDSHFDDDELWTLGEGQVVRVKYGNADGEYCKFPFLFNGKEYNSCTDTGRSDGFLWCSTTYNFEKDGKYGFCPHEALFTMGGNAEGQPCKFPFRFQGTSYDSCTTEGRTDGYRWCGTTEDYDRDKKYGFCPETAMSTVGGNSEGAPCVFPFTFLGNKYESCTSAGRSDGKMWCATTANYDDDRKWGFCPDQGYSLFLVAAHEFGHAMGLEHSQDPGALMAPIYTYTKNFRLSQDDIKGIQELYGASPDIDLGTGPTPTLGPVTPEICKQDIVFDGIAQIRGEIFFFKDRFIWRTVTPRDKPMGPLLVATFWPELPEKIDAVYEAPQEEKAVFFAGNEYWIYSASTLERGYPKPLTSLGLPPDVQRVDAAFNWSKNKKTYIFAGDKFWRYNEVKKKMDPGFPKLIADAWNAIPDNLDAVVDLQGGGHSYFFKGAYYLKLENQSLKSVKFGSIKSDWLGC

Escherichia coli [4] = test: Antibacterial activity against Escherichia coli D22 measured after 20 hrs by microdilution method; assay type: functional; settings: D22, 20 h
Klebsiella pneumoniae = test: Antibacterial activity against Klebsiella pneumoniae assessed as diameter of inhibition zone measured after 24 hrs by agar disc diffusion method; assay type: functional
Collagenase 3 = Collagenase 3 (Homo sapiens, UniProt P45452); test: Inhibition of human MMP13 using (7-methoxycoumarin-4-yl)acetyl-Pro-Leu-Gly-Leu-(3-(2,4-dinitrophenyl)-L-2,3-diamino-propionyl)Ala-Arg-NH2 as substrate preincubated for 30 mins followed by substrate addition and measured by fluorescence assay
Escherichia coli [5] = test: Antibacterial activity against Escherichia coli BL21(DE3) assessed as diameter of inhibition zone measured after overnight incubation by agar disc diffusion method; assay type: functional
[6] = target: Matrix metalloproteinase-9 (Homo sapiens, UniProt P14780); test: Inhibition of human MMP9 using (7-methoxycoumarin-4-yl)acetyl-Pro-Leu-Gly-Leu-(3-(2,4-dinitrophenyl)-L-2,3-diamino-propionyl)Ala-Arg-NH2 as substrate preincubated for 30 mins followed by substrate addition and measured by fluorescence assay
Sequence of Matrix metalloproteinase-9 (P14780 whole entry): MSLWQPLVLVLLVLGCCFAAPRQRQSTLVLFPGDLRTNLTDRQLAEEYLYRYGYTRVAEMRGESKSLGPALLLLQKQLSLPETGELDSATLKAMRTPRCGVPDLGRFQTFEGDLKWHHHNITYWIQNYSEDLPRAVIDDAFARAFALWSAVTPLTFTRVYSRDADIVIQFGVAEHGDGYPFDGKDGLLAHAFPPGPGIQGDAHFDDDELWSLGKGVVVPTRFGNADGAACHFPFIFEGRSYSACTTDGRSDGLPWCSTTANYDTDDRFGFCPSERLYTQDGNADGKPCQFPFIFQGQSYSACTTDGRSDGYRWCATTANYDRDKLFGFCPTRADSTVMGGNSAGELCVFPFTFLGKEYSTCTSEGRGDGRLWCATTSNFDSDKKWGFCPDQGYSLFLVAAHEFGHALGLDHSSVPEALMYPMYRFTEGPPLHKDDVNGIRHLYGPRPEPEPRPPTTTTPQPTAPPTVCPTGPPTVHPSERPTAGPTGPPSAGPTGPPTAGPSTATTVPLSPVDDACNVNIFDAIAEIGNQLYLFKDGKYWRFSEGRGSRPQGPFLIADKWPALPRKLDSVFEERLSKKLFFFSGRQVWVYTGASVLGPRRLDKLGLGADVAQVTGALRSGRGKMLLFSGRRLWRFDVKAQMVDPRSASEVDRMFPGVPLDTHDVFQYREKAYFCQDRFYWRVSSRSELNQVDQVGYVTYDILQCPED

Escherichia coli [7] = test: Antibacterial activity against Escherichia coli BL21(DE3) measured after 20 hrs by microdilution method; assay type: functional
Enterobacter cloacae = test: Antibacterial activity against Enterobacter cloacae assessed as diameter of inhibition zone measured after 24 hrs by agar disc diffusion method; assay type: functional
Proteus mirabilis = test: Antibacterial activity against Proteus mirabilis assessed as diameter of inhibition zone measured after 24 hrs by agar disc diffusion method; assay type: functional

IC50 (Neutrophil collagenase) [µM] | IC50 [2] [µM] | IC50 [3] [µM] | MIC (Escherichia coli [4]) [µM] | IC50 (Collagenase 3) [nM] | IC50 [6] [µM] | MIC (Escherichia coli [7]) [µM] | SMILES | diameter of the inhibition zone (DIZ) (Klebsiella aerogenes) [mm] | diameter of the inhibition zone (DIZ) (Pseudomonas aeruginosa) [mm] | diameter of the inhibition zone (DIZ) (Klebsiella oxytoca) [mm] | diameter of the inhibition zone (DIZ) (Escherichia coli [1]) [mm] | diameter of the inhibition zone (DIZ) (Citrobacter freundii) [mm] | diameter of the inhibition zone (DIZ) (Proteus vulgaris) [mm] | Ki [2] [µM] | diameter of the inhibition zone (DIZ) (Klebsiella pneumoniae) [mm] | diameter of the inhibition zone (DIZ) (Escherichia coli [5]) [mm] | diameter of the inhibition zone (DIZ) (Enterobacter cloacae) [mm] | diameter of the inhibition zone (DIZ) (Proteus mirabilis) [mm]
0.015 | > 200 | 0.003 | > 128 | 0.7 | 0.12 | > 256 | CCCCCc1ccc(C#Cc2ccc(C(=O)N3C[C@@H](O)C[C@H]3C(=O)NO)cc2)cc1 | <6 | <6 | 7 | 8 | 7 | 8 | > 27.6 | <6 | <6 | <6 | 7
0.021 | – | 0.005 | > 256 | 0.07 | 0.108 | > 256 | O=C(NO)[C@@H]1C[C@H](O)CN1C(=O)c1ccc(C#Cc2ccc(OCCCCCF)cc2)cc1 | – | – | – | <6 | – | – | – | – | <6 | – | –
– | > 200 | 3 | 256 (≈ 129 µg/mL) | > 10000 | > 10 | > 256 | CC1(C)O[C@@H]2[C@@H](CN(C(=O)c3ccc(C#Cc4ccc(CN5CCOCC5)cc4)cc3)[C@H]2C(=O)NO)O1 | 8 | <6 | 8 | 10 | 11 | <6 | > 27.6 | 8 | 9 | <6 | 8
– | 16.7 | – | 32 (≈ 12.6 µg/mL) | – | – | 256 (≈ 101 µg/mL) | CN(C)c1ccc(C#Cc2ccc(C(=O)N3C[C@@H](O)C[C@H]3C(=O)NO)cc2)cc1 | 9 | <6 | 8 | 13 | 9 | <6 | 2.3 | 9 | <6 | 8 | 8
– | 8.1 | – | 1 (≈ 0.436 µg/mL) | – | – | 64 (≈ 27.9 µg/mL) | O=C(NO)[C@@H]1CCCN1Cc1ccc(C#Cc2ccc(CN3CCSCC3)cc2)cc1 | 13 | <6 | 11 | 17.7 | 13 | <6 | 1.1 | 14 | 10.7 | 14 | 8

Further lines, the compound ahead of its results:

SMILES | IC50 (Neutrophil collagenase) [µM] | IC50 [2] [µM] | IC50 [3] [µM] | MIC (Escherichia coli [4]) [µM] | IC50 (Collagenase 3) [nM] | IC50 [6] [µM] | MIC (Escherichia coli [7]) [µM] | diameter of the inhibition zone (DIZ) (Klebsiella aerogenes) [mm] | diameter of the inhibition zone (DIZ) (Pseudomonas aeruginosa) [mm] | diameter of the inhibition zone (DIZ) (Klebsiella oxytoca) [mm] | diameter of the inhibition zone (DIZ) (Escherichia coli [1]) [mm] | diameter of the inhibition zone (DIZ) (Citrobacter freundii) [mm] | diameter of the inhibition zone (DIZ) (Proteus vulgaris) [mm] | Ki [2] [µM] | diameter of the inhibition zone (DIZ) (Klebsiella pneumoniae) [mm] | diameter of the inhibition zone (DIZ) (Escherichia coli [5]) [mm] | diameter of the inhibition zone (DIZ) (Enterobacter cloacae) [mm] | diameter of the inhibition zone (DIZ) (Proteus mirabilis) [mm]
O=C(NO)[C@@H]1CCCN1Cc1ccc(C#Cc2ccc(CN3CCOCC3)cc2)cc1 | 5 | 10.5 | 3 | 4 (≈ 1.68 µg/mL) | 939 | > 10 | 128 (≈ 53.7 µg/mL) | 18 | <6 | 13 | 25 | 16 | 12 | 1.4 | 20 | 15 | 20 | 18
O=C(NO)[C@@H]1C[C@H](O)CN1C(=O)c1ccc(C#Cc2ccc(CN3CCSCC3)cc2)cc1 | – | 32.8 | – | 8 (≈ 3.72 µg/mL) | – | – | 128 (≈ 59.6 µg/mL) | 18 | <6 | 11 | 21.3 | 14 | 9 | 4.5 | 15 | 13 | 14 | 10
O=C(NO)[C@@H]1CCCN1C(=O)c1ccc(C#Cc2ccc(CN3CCSCC3)cc2)cc1 | – | 45.2 | – | 8 (≈ 3.6 µg/mL) | – | – | 128 (≈ 57.5 µg/mL) | 14 | <6 | 11 | 18 | 14 | 10 | 6.2 | 18 | 12.7 | 14 | 12
O=C(NO)[C@@H]1CCCN1C(=O)c1ccc(C#Cc2ccc(CN3CCCCC3)cc2)cc1 | – | > 200 | – | 128 (≈ 55.2 µg/mL) | – | – | > 256 | 12 | <6 | 9 | 18.7 | 8 | 11 | > 27.6 | 13 | 7 | 10 | 10
O=C(NO)[C@@H]1C[C@H](O)CN1C(=O)c1ccc(C#Cc2ccc(CN3CCCCC3)cc2)cc1 | – | 54.5 | – | 32 (≈ 14.3 µg/mL) | – | – | > 256 | 10 | <6 | 9 | 19.2 | 9 | 13 | 7.5 | 9 | <6 | <6 | 11
O=C(NO)[C@@H]1C[C@H](O)CN1C(=O)c1ccc(C#Cc2ccc(CN3CCCC3)cc2)cc1 | – | > 200 | – | 64 (≈ 27.7 µg/mL) | – | – | > 256 | <6 | <6 | <6 | 14.3 | <6 | <6 | > 27.6 | <6 | <6 | <6 | <6
